# From US11254688B2 (Boehringer Ingelheim International GmbH, priority 2018, dated 2022)
# pIC50: −log10 of the molar value. Structures can show the parent of a compound that is named as a salt.
# Molecular target: T1, hGOAT (Homo sapiens, UniProt Q96T53)
# T1 construct: expressed in transfected cells; host or cells: HEK293 (Hek293 hGOAT/PPGhrl Clone #1B8)
# T1 sequence (Q96T53 1-435): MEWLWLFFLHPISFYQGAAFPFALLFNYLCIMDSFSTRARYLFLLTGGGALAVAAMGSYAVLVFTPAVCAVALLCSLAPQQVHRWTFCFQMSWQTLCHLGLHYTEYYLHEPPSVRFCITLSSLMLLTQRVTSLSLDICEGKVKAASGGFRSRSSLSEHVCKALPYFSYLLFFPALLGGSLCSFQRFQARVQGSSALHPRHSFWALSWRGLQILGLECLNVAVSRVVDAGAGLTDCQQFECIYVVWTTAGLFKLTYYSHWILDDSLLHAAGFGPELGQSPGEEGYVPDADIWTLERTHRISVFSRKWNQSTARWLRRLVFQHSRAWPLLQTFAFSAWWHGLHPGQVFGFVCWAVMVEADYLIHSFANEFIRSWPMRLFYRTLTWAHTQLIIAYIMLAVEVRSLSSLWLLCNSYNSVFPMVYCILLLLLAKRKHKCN
# Assay: Determination of hGOAT activity in HEK293 cells after incubation with test compound (acyl-ghrelin ELISA)
# Type: cell-based
# Conditions: HEK293 cells stably transfected with preproghrelin and human GOAT; octanoate-BSA 100 μM; 5 hours incubation; acyl-ghrelin in medium by ELISA; 8 compound concentrations
row,SMILES,pIC50
1,"Cc1nc2nonc2c(N)c1Cc1ccnc(OC(F)F)c1 [Compound 4.48, 6-(2-Difluoromethoxy-pyridin-4-ylmethyl)-5-methyl-[1,2,5]oxadiazolo[3,4-b]pyridin-7-ylamine]",8.52
2,"Cc1nc2nonc2c(N)c1Cc1ccc(C(F)(F)F)n2cnnc12 [Compound 4.12, 5-Methyl-6-{[5-(trifluoromethyl)-[1,2,4]triazolo[4,3-a]pyridin-8-yl]methyl}-[1,2,5]oxadiazolo[3,4-b]pyridin-7-amine]",9.24
3,"Cc1nc2nonc2c(N)c1Cc1ccc(C(=O)NCc2ccn(C)n2)cc1 [Compound 14.4, 4-({7-Amino-5-methyl-[1,2,5]oxadiazolo[3,4-b]pyridin-6-yl}methyl)-N-[(1-methyl-1H-pyrazol-3-yl)methyl]benzamide]",8.65
4,"Cc1nc2nonc2c(N)c1Cc1cccc(S(=O)(=O)C(F)(F)F)c1 [Compound 4.42, 5-Methyl-6-[(3-trifluoromethanesulfonylphenyl)methyl]-[1,2,5]oxadiazolo[3,4-b]pyridin-7-amine]",9.42
5,"Cc1nc2nonc2c(N)c1Cc1ccc(OCC2(C)COC2)nc1 [Compound 21.11, 5-Methyl-6-({6-[(3-methyloxetan-3-yl)methoxy]pyridin-3-yl}methyl)-[1,2,5]oxadiazolo[3,4-b]pyridin-7-amine]",8.72
6,"Cc1nc2nonc2c(N)c1Cc1ccc(-n2cc(C#N)cn2)nc1 [Compound 20.1, 1-[5-({7-Amino-5-methyl-[1,2,5]oxadiazolo[3,4-b]pyridin-6-yl}methyl)pyridin-2-yl]-1H-pyrazole-4-carbonitrile Trifluoro-Acetic Acid Salt]",8.33
7,"Cc1nc2nonc2c(N)c1Cc1cnc(Cl)c(C(F)(F)F)c1 [Compound 25.4, 6-{[6-chloro-5-(trifluoromethyl)pyridin-3-yl]methyl}-5-methyl-[1,2,5]oxadiazolo[3,4-b]pyridin-7-amine]",8.87
8,"Cc1nc2nonc2c(N)c1Cc1ccc(-c2ccco2)nc1 [Compound 12.9, 6-{[6-(Furan-2-yl)pyridin-3-yl]methyl}-5-methyl-[1,2,5]oxadiazolo[3,4-b]pyridin-7-amine]",8.83
9,"Cc1nc2nonc2c(N)c1Cc1ccc(F)cc1 [Compound 4.50, 6-[(4-Fluorophenyl)methyl]-5-methyl-[1,2,5]oxadiazolo[3,4-b]pyridin-7-amine]",9.12
10,"Cc1nc2nonc2c(N)c1Cc1ccc(F)c(C#N)c1 [Compound 2.9, 5-({7-Amino-5-methyl-[1,2,5]oxadiazolo[3,4-b]pyridin-6-yl}methyl)-2-fluorobenzonitrile]",8.70
11,"Cc1nc2nonc2c(N)c1Cc1ccc(OC2CCOCC2)nc1 [Compound 21.12, 5-Methyl-6-[6-(tetrahydro-pyran-4-yloxy)-pyridin-3-ylmethyl]-[1,2,5]oxadiazolo[3,4-b]pyridin-7-ylamine]",9.01
12,"Cc1nc2nonc2c(N)c1Cc1ccc(C(C)(C)C)nc1 [Compound 4.7, 6-[(6-tert-butylpyridine-3-yl)methyl]-5-methyl-[1,2,5]oxadiazolo[3,4-b]pyridin-7-amine]",9.91
13,"Cc1nc2nonc2c(N)c1Cc1ccc(CC#N)cc1 [Compound 2.15, 2-[4-({7-Amino-5-methyl-[1,2,5]oxadiazolo[3,4-b]pyridin-6-yl}methyl)phenyl]acetonitrile]",9.05
14,"Cc1nc2nonc2c(N)c1Cc1ccc(C2(C#N)CC2)nc1 [Compound 4.8, 1-[5-({7-Amino-5-methyl-[1,2,5]oxadiazolo[3,4-b]pyridin-6-yl}methyl)pyridin-2-yl]cyclopropane-1-carbonitrile]",8.85
15,"Cc1nc2nonc2c(N)c1Cc1ccc(OC(F)(F)F)c(-c2cc[nH]n2)c1 [Compound 12.2, 5-Methyl-6-[3-(1H-pyrazol-3-yl)-4-trifluoromethoxy-benzyl]-[1,2,5]oxadiazolo[3,4-b]pyridin-7-ylamine]",10.37
16,"Cc1nc2nonc2c(N)c1Cc1ccc(OCC2CC2(F)F)nc1 (stereo in doubt) [Compound 21.13, 6-[(6-{[(1R)-2,2-Difluorocyclopropyl]methoxy}pyridin-3-yl)methyl]-5-methyl-[1,2,5]oxadiazolo[3,4-b]pyridin-7-amine]",9.14
17,"Cc1nc2nonc2c(N)c1Cc1ccc(-c2cscc2C#N)nc1 [Compound 12.4, 4-[5-(7-Amino-5-methyl-[1,2,5]oxadiazolo[3,4-b]pyridin-6-ylmethyl)-pyridin-2-yl]-thiophene-3-carbonitrile]",8.82
18,"Cc1nc2nonc2c(N)c1Cc1ccc(C#N)c(Br)c1 [Compound 4.45, 4-(7-Amino-5-methyl-[1,2,5]oxadiazolo[3,4-b]pyridin-6-ylmethyl)-2-bromo-benzonitrile]",9.63
19,"Cc1nc2nonc2c(N)c1Cc1ccc(C(=O)NC2CCOC2)cc1 (stereo not shown) [Compound 14.12, 4-({7-Amino-5-methyl-[1,2,5]oxadiazolo[3,4-b]pyridin-6-yl}methyl)-N-(oxolan-3-yl)benzamide]",8.52

row,SMILES,pIC50
1,"Cc1nc2nonc2c(N)c1Cc1ccc(OC2CCOC2)nc1 (stereo not shown) [Compound 21.10, 5-Methyl-6-{[6-(oxolan-3-yloxy)pyridin-3-yl]methyl}-[1,2,5]oxadiazolo[3,4-b]pyridin-7-amine]",8.59
2,"Cc1nc2nonc2c(N)c1Cc1cccc(N=S(C)(C)=O)c1 [Compound 13.1, {[3-({7-Amino-5-methyl-[1,2,5]oxadiazolo[3,4-b]pyridin-6-yl}methyl)phenyl]imino}dimethyl-λ^6-sulfanone]",8.81
3,"Cc1nc2nonc2c(N)c1Cc1ccc(C(=O)NC2(CO)CC2)cc1 [Compound 14.6, 4-({7-Amino-5-methyl-[1,2,5]oxadiazolo[3,4-b]pyridin-6-yl}methyl)-N-[1-(hydroxymethyl)cyclopropyl]benzamide]",8.37
4,"Nc1c(Cc2ccc(OC(F)(F)F)cc2)c(CF)nc2nonc12 [Compound 11.1, 5-(Fluoromethyl)-6-{[4-(trifluoromethoxy)phenyl]methyl}-[1,2,5]oxadiazolo[3,4-b]pyridin-7-amine]",10.17
5,"Cc1nc2nonc2c(N)c1Cc1ccc(F)cc1F [Compound 2.7, 6-[(2,4-Difluorophenyl)methyl]-5-methyl-[1,2,5]oxadiazolo[3,4-b]pyridin-7-amine]",9.45
6,"COc1ncccc1Cc1c(C)nc2nonc2c1N [Compound 2.11, 6-[(2-Methoxypyridin-3-yl)methyl]-5-methyl-[1,2,5]oxadiazolo[3,4-b]pyridin-7-amine]",8.97
7,"Cc1nc2nonc2c(N)c1Cc1ccc(Cl)c(C(=O)N(C)C)c1 [Compound 15.5, 5-({7-Amino-5-methyl-[1,2,5]oxadiazolo[3,4-b]pyridin-6-yl}methyl)-2-chloro-N,N-dimethylbenzamide]",9.32
8,"Cc1nc2nonc2c(N)c1Cc1ccc(C(F)(F)F)cc1 [Compound 1.3, 5-Methyl-6-{[4-(trifluoromethyl)phenyl]methyl}-[1,2,5]oxadiazolo[3,4-b]pyridin-7-amine]",9.53
9,"Cc1nc2nonc2c(N)c1Cc1cccnc1OC(F)F [Compound 4.47, 6-{[2-(Difluoromethoxy)pyridin-3-yl]methyl}-5-methyl-[1,2,5]oxadiazolo[3,4-b]pyridin-7-amine]",8.74
10,"Cc1nc2nonc2c(N)c1Cc1ccc(F)c(C(N)=O)c1 [Compound 19.6, 5-({7-Amino-5-methyl-[1,2,5]oxadiazolo[3,4-b]pyridin-6-yl}methyl)-2-fluorobenzamide]",8.69
11,"Cc1nc2nonc2c(N)c1Cc1ccc(C(=O)NC2CCOCC2)cc1 [Compound 14.5, 4-({7-Amino-5-methyl-[1,2,5]oxadiazolo[3,4-b]pyridin-6-yl}methyl)-N-(oxan-4-yl)benzamide]",8.63
12,"Cc1nc2nonc2c(N)c1Cc1ccc(C#N)c(OC(F)(F)F)c1 [Compound 4.43, 4-({7-Amino-5-methyl-[1,2,5]oxadiazolo[3,4-b]pyridin-6-yl}methyl)-2-(trifluoromethoxy)benzonitrile]",10.28
13,"Cc1nc2nonc2c(N)c1Cc1ccc(C#N)c(O[C@H]2CCC(=O)NC2)c1 [Compound 21.9, 4-({7-Amino-5-methyl-[1,2,5]oxadiazolo[3,4-b]pyridin-6-yl}methyl)-2-{[(3S)-6-oxopiperidin-3-yl]oxy}benzonitrile]",7.77
14,"Cc1nc2nonc2c(N)c1Cc1ccc(C(=O)NC2CCN(C)C2=O)cc1 (stereo not shown) [Compound 14.9, 4-({7-Amino-5-methyl-[1,2,5]oxadiazolo[3,4-b]pyridin-6-yl}methyl)-N-(1-methyl-2-oxopyrrolidin-3-yl)benzamide]",8.51
15,"Cc1nc2nonc2c(N)c1Cc1ccc(OC(F)F)cc1 [Compound 4.33, 6-{[4-(Difluoromethoxy)phenyl]methyl}-5-methyl-[1,2,5]oxadiazolo[3,4-b]pyridin-7-amine]",9.94
16,"Cc1nc2nonc2c(N)c1Cc1ccc(S(C)(=O)=O)cc1 [Compound 2.12, 6-[(4-Methanesulfonylphenyl)methyl]-5-methyl-[1,2,5]oxadiazolo[3,4-b]pyridin-7-amine]",9.31
17,"Cc1nc2nonc2c(N)c1Cc1ccc(-c2ccsc2C#N)n2cnnc12 [Compound 12.12, 3-[8-({7-Amino-5-methyl-[1,2,5]oxadiazolo[3,4-b]pyridin-6-yl}methyl)-[1,2,4]triazolo[4,3-a]pyridin-5-yl]thiophene-2-carbonitrile]",8.90
18,"Cc1nc2nonc2c(N)c1Cc1ccc(Br)c(C(N)=O)c1 [Compound 19.5, 5-({7-Amino-5-methyl-[1,2,5]oxadiazolo[3,4-b]pyridin-6-yl}methyl)-2-bromobenzamide]",8.65
